From paper PMC3321104 (Bioorganic & medicinal chemistry letters, 2012)
Read-outs that look alike come from different tables or passages of the source.

How the values were obtained:
Vero cell = Vero cell toxicity; assay type: cell-based; conditions: concentrations up to 25 μM
[1] = system: chloroquine-resistant P. falciparum strain W2; assay: microbe, parasite or virus in culture; conditions: Plasmodium falciparum
[2] = system: chloroquine-resistant P. falciparum strain W2

## CC1=C(CCCC[P+](c2ccccc2)(c2ccccc2)c2ccccc2)C(=O)c2ccccc2C1=O [9o, (4-(3-methyl-1,4-dioxo-1,4-dihydronaphthalen-2-yl)butyl)triphenyl-phosphonium methanesulfonate]
Vero cell
  Vero cell toxicity (in words): not displaying toxicity at 25 μM

## CCN(CC)CCCC(C)Nc1ccnc2cc(Cl)ccc12 (centres unmarked) [CQ, chloroquine]
[1]; W2, read-out: IC50 (nM), P. falciparum growth
  IC50: 66.9 ± 2.3 nM
[1]; W2, read-out: IC50, P. falciparum W2
  IC50: 66.9 nM

## O=C(Cn1ccnc1[N+](=O)[O-])NCc1ccccc1 [BNZ, benznidazole]
Vero cell
  Vero cell toxicity (in words): non-toxic

## CC1=C(CCCCC[P+](c2ccccc2)(c2ccccc2)c2ccccc2)C(=O)c2ccccc2C1=O [9n]
[2]
  fold greater activity than control 4a: 3–7 fold
